ChEMBL document CHEMBL5375952, “Discovery of Novel 8-Hydroxyquinoline Derivatives with Potent In Vitro and In Vivo Antifungal Activity” (J Med Chem, 2023)
The source made the active and inactive calls. The rule behind the calls is not given here.

Columns and labels:
[1] = system: Candida albicans; assay: Synergistic antifungal activity against FLC-resistant Candida albicans 540 assessed as fractional inhibitory concentration index incubated for 48 hrs in presence of FLC by broth microdilution method; type: functional
[2] = system: Candida albicans; assay: Synergistic antifungal activity against FLC-resistant Candida albicans 64548 assessed as fungal growth inhibition incubated for 48 hrs in presence of FLC by broth microdilution method; type: functional
[3] = Oral bioavailability in Sprague-Dawley rat at 5 mg/kg by LC-MS/MS analysis; type: ADME, organism-based; details: in vivo
[4] = system: Candida albicans; assay: Synergistic antifungal activity against FLC-resistant Candida albicans 710452 assessed as fungal growth inhibition incubated for 48 hrs in presence of FLC by broth microdilution method; type: functional
[5] = system: Candida albicans; assay: Synergistic antifungal activity against FLC-resistant Candida albicans 512681 assessed as fractional inhibitory concentration index incubated for 48 hrs in presence of FLC by broth microdilution method; type: functional
[6] = system: Candida albicans; assay: Synergistic antifungal activity against FLC-resistant Candida albicans 305 assessed as fungal growth inhibition incubated for 48 hrs in presence of FLC by broth microdilution method; type: functional
[7] = system: Candida albicans; assay: Synergistic antifungal activity against FLC-resistant Candida albicans 819 assessed as MIC of FLC incubated for 48 hrs by broth microdilution method; type: functional
[8] = Toxicity in C57BL/6 mouse infected with Candida albicans SC5314 assessed as animal survival at 2 mg/kg, ip measured after 20 days relative to control; type: organism-based; details: in vivo, 480 h, time 20 day
[9] = system: Candida albicans; assay: Synergistic antifungal activity against FLC-resistant Candida albicans 304103 assessed as fractional inhibitory concentration index incubated for 48 hrs in presence of FLC by broth microdilution method; type: functional
[10] = system: Candida albicans; assay: Synergistic antifungal activity against FLC-resistant Candida albicans 17 assessed as MIC of FLC incubated for 48 hrs by broth microdilution method; type: functional
[11] = system: Candida albicans; assay: Synergistic antifungal activity against FLC-resistant Candida albicans 8 assessed as fractional inhibitory concentration index incubated for 48 hrs in presence of FLC by broth microdilution method; type: functional
[12] = system: Candida albicans; assay: Inhibition of biofilm formation of Candida albicans SC5314 at 8 ug/ml incubated for 24 hrs by XTT assay relative to control; type: functional
[13] = system: Candida albicans; assay: Synergistic antifungal activity against FLC-resistant Candida albicans 512644 assessed as fractional inhibitory concentration index incubated for 48 hrs in presence of FLC by broth microdilution method; type: functional
[14] = system: Candida albicans; assay: Synergistic inhibition of biofilm formation of Candida albicans SC5314 at 0.5 ug/ml incubated for 24 hrs in presence of 1 ug/ml of FLC by XTT assay relative to control; type: functional
[15] = system: Candida albicans; assay: Synergistic antifungal activity against FLC-resistant Candida albicans 395 assessed as fungal growth inhibition incubated for 48 hrs in presence of FLC by broth microdilution method; type: functional
[16] = system: Candida albicans; assay: Synergistic antifungal activity against FLC-resistant Candida albicans 710506 assessed as fungal growth inhibition incubated for 48 hrs in presence of FLC by broth microdilution method; type: functional
[17] = system: Candida albicans; assay: Synergistic antifungal activity against FLC-resistant Candida albicans 512644 assessed as MIC of FLC incubated for 48 hrs by broth microdilution method; type: functional
[18] = system: Candida albicans; assay: Synergistic antifungal activity against FLC-resistant Candida albicans 241 assessed as fractional inhibitory concentration index incubated for 48 hrs in presence of FLC by broth microdilution method; type: functional
[19] = system: Candida albicans; assay: Inhibition of biofilm formation of Candida albicans SC5314 at 16 ug/ml incubated for 24 hrs by XTT assay relative to control; type: functional
[20] = system: Candida albicans; assay: Synergistic antifungal activity against FLC-resistant Candida albicans 710513 assessed as MIC of FLC incubated for 48 hrs by broth microdilution method; type: functional
[21] = Tmax in Sprague-Dawley rat at 5 mg/kg, po by LC-MS/MS analysis; type: ADME, organism-based; details: in vivo
[22] = system: Candida albicans; assay: Synergistic antifungal activity against FLC-resistant Candida albicans 5740 assessed as fungal growth inhibition incubated for 48 hrs in presence of FLC by broth microdilution method; type: functional
[23] = AUC (0 to infinity) in Sprague-Dawley rat at 2 mg/kg, iv by LC-MS/MS analysis; type: ADME, organism-based; set-up: dose 2 mg/kg, route iv; details: in vivo
[24] = system: Candida albicans; assay: Synergistic antifungal activity against FLC-resistant Candida albicans 100 assessed as fractional inhibitory concentration index incubated for 48 hrs in presence of FLC by broth microdilution method; type: functional
[25] = system: Candida albicans; assay: Synergistic antifungal activity against FLC-resistant Candida albicans 819 assessed as fungal growth inhibition incubated for 48 hrs in presence of FLC by broth microdilution method; type: functional
[26] = system: Candida albicans; assay: Synergistic antifungal activity against FLC-resistant Candida albicans 1221 assessed as fungal growth inhibition incubated for 48 hrs in presence of FLC by broth microdilution method; type: functional
[27] = system: Candida albicans; assay: Synergistic antifungal activity against FLC-resistant Candida albicans 11 assessed as fractional inhibitory concentration index incubated for 48 hrs in presence of FLC by broth microdilution method; type: functional
[28] = system: Candida albicans; assay: Synergistic antifungal activity against FLC-resistant Candida albicans 605141 assessed as fungal growth inhibition incubated for 48 hrs in presence of FLC by broth microdilution method; type: functional
[29] = system: Candida albicans; assay: Synergistic antifungal activity against FLC-resistant Candida albicans 710452 assessed as fractional inhibitory concentration index incubated for 48 hrs in presence of FLC by broth microdilution method; type: functional
[30] = system: Candida albicans; assay: Synergistic antifungal activity against FLC-resistant Candida albicans 710513 assessed as fungal growth inhibition incubated for 48 hrs in presence of FLC by broth microdilution method; type: functional
[31] = system: Candida albicans; assay: Antifungal activity against Candida albicans 0304103 assessed as fungal growth inhibition at 4 to 8 ug/ml incubated for 48 hrs by time-kill assay; type: functional, organism-based; details: dose 4-8 µg/ml
[32] = system: Candida albicans; assay: Synergistic inhibition of hypha formation in Candida albicans SC5314 at 4 to 16 ug/ml incubated for 3 hrs in presence of FLC by inverted phase contrast microscopy; type: functional, organism-based; details: dose 4-16 µg/ml
[33] = system: Candida albicans; assay: Synergistic antifungal activity against FLC-resistant Candida albicans 1221 assessed as fractional inhibitory concentration index incubated for 48 hrs in presence of FLC by broth microdilution method; type: functional
[34] = system: Candida albicans; assay: Antifungal activity against Candida albicans SC5314 assessed as fungal growth inhibition incubated for 48 hrs in presence of Cu2+ by broth microdilution method (reference value: 0.0625 ug/ml); type: functional
[35] = system: Candida albicans; assay: Synergistic antifungal activity against FLC-resistant Candida albicans 100 assessed as fungal growth inhibition incubated for 48 hrs in presence of FLC by broth microdilution method; type: functional
[36] = system: Candida albicans; assay: Synergistic antifungal activity against FLC-resistant Candida albicans 14 assessed as fungal growth inhibition incubated for 48 hrs in presence of FLC by broth microdilution method; type: functional
[37] = system: Candida albicans; assay: Synergistic antifungal activity against FLC-resistant Candida albicans 538 assessed as MIC of FLC incubated for 48 hrs by broth microdilution method; type: functional
[38] = system: Candida albicans; assay: Synergistic antifungal activity against FLC-resistant Candida albicans 8 assessed as MIC of FLC incubated for 48 hrs by broth microdilution method; type: functional
[39] = system: Candida albicans; assay: Synergistic antifungal activity against FLC-resistant Candida albicans 64548 assessed as fractional inhibitory concentration index incubated for 48 hrs in presence of FLC by broth microdilution method; type: functional
[40] = Toxicity in C57BL/6 mouse infected with Candida albicans SC5314 assessed as animal death at 2 mg/kg, ip measured after 7 days; type: organism-based; details: in vivo, 168 h, time 7 day

## CCN(CC)c1ccc(C(NC(=O)C(C)C)c2ccc3cccnc3c2O)cc1 (stereo not given)
[1]
  fractional inhibitory concentration index (FICI): 0.064
[2]
  MIC: 0.031 µg/mL
[3]
  bioavailability: 5.7%
[4]
  MIC: 0.016 µg/mL
[5]
  fractional inhibitory concentration index (FICI): 0.127
[6]
  MIC: 0.016 µg/mL
[7]
  MIC: 0.25 µg/mL
[8]
  Survival: 20%
[9]
  fractional inhibitory concentration index (FICI): 0.047
[10]
  MIC: 0.125 µg/mL
[11]
  fractional inhibitory concentration index (FICI): 0.252
[12]
  inhibition at 8 µg/mL: 16.5%
[13]
  fractional inhibitory concentration index (FICI): 0.047
[14]
  inhibition at 0.5 µg/mL: 48.7%
[15]
  MIC: 0.016 µg/mL
[16]
  MIC: 0.031 µg/mL
[17]
  MIC: 2 µg/mL
[18]
  fractional inhibitory concentration index (FICI): 0.039
[19]
  inhibition at 16 µg/mL: 29.8%
[20]
  MIC: 1 µg/mL
[21]
  Tmax: 15 min
[22]
  MIC: 0.016 µg/mL
[23]
  AUC(0-inf): 1110 ng·h/mL
[24]
  fractional inhibitory concentration index (FICI): 0.14
[25]
  MIC: 0.016 µg/mL
[26]
  MIC: 0.031 µg/mL
[27]
  fractional inhibitory concentration index (FICI): 0.039
[28]
  MIC: 0.031 µg/mL
[29]
  fractional inhibitory concentration index (FICI): 0.127
[30]
  MIC: 0.016 µg/mL
[31]
  growth inhibition (GI): inactive
[32]
  inhibition: Active
[33]
  fractional inhibitory concentration index (FICI): 0.126
[34]
  MIC: 128 µg/mL
[35]
  MIC: 0.016 µg/mL
[36]
  MIC: 0.016 µg/mL
[37]
  MIC: 2 µg/mL
[38]
  MIC: 0.031 µg/mL
[39]
  fractional inhibitory concentration index (FICI): 0.063

## Oc1c(I)cc(Cl)c2cccnc12 [CLIOQUINOL]
[40]
  Activity: Non-Toxic
